From patent US10294230B2, “3,3-difluoropiperidine carbamate heterocyclic compounds as NR2B NMDA receptor antagonists” (Rugen Holdings (Cayman) Limited, priority 2015, dated 2019)

Assays:
human NR1/NR2B = human NR1/NR2B (Homo sapiens (Human), UniProt Q05586+Q13224); experiment: NR2B antagonist activity, Fluo-4 calcium influx in HEK293 cells; assay type: cell-based
Experimental: HEK293 cell lines stably expressing cloned human NR1/NR2B and NR1/NR2A, respectively, were established according to standard previously described methods (Hansen et al., Comb. Chem High Throughput Screen. 11:304, 2008). Activation of the NR2A or NR2B subtype of NMDA receptor with glutamate as an agonist and glycine co-agonist on these cells results in calcium influx, which can be monitored with fluorescent indicator Fluo-4.
For experiments, the cells were seeded onto poly-D-lysine-coated 96-well black plates with clear bottom (Corning) at a density of ˜50,000 cells/well. After overnight culture, the growth medium was removed from the wells and the cells were incubated at 37° C. for 60 min in Hanks buffer containing 4 μM fluo-4-AM (Invitrogen) and 0.1% bovine serum albumin (BSA). After dye-loading, the cells were washed three times with Hanks buffer and incubated for 10 min at room temperature with various concentrations of test compounds prepared in Hanks buffer with 0.1% BSA. The cell plates were placed onto FDSS pCell fluorescence reader (Hamamatsu). After 20 sec reading of background fluorescence, agonist glutamate at final 100 μM and co-agonist glycine at final 50 μM were added to the cells to activate the receptor, and the resulting fluorescence changes were recorded and quantified. Based on the changes in fluorescence intensity, the pharmacological effect of test compounds were analyzed and the IC50 values derived from a non-linear least squares fitting of the concentration-dependent response to a standard logistic equation using Prism (Graphpad, Inc): Amplitude=Max Amplitude/(1+(IC50/[antagonist])^n).

NMDA receptor = experiment: [3H] MK-801 radioligand binding, rat brain membranes; conditions: 2 nM [3H] MK-801
Experimental: This example describes NMDA receptor binding assays using two different radioligands, [^3H] […] An established binding assay using the non-selective NMDA receptor ligand [^3H] […] The binding assay method using the NR2B selective receptor ligand [^3H] […] This assay serves as a selective measure of NR2B receptor binding activity in native rat brain receptors. Briefly, the brains of Male Wistar rats were homogenized (Polytron) before centrifugation at 40,000×g for 15 minutes at 4° C. After 2 washes, the final pellet was homogenized and stored at −80° C. The protein concentration was determined by Bradford assay.
Test compounds were solubilized at 10 mM in DMSO. Then the dilutions were performed with a constant solvent concentration (1% DMSO) in the assay.
After incubation for 4.5 h at room temperature, the assays were filtered on GF/B filters pretreated with 0.3% (v/v) PEI with a Brandel system for [^3H] […] The experiment was performed in duplicate (n=2).

hERG channel = hERG channel (Homo sapiens (Human), UniProt Q12809); experiment: hERG channel inhibition, whole cell patch clamp in HEK293 cells; assay type: cell-based
hERG channel, sequence (Q12809 whole entry): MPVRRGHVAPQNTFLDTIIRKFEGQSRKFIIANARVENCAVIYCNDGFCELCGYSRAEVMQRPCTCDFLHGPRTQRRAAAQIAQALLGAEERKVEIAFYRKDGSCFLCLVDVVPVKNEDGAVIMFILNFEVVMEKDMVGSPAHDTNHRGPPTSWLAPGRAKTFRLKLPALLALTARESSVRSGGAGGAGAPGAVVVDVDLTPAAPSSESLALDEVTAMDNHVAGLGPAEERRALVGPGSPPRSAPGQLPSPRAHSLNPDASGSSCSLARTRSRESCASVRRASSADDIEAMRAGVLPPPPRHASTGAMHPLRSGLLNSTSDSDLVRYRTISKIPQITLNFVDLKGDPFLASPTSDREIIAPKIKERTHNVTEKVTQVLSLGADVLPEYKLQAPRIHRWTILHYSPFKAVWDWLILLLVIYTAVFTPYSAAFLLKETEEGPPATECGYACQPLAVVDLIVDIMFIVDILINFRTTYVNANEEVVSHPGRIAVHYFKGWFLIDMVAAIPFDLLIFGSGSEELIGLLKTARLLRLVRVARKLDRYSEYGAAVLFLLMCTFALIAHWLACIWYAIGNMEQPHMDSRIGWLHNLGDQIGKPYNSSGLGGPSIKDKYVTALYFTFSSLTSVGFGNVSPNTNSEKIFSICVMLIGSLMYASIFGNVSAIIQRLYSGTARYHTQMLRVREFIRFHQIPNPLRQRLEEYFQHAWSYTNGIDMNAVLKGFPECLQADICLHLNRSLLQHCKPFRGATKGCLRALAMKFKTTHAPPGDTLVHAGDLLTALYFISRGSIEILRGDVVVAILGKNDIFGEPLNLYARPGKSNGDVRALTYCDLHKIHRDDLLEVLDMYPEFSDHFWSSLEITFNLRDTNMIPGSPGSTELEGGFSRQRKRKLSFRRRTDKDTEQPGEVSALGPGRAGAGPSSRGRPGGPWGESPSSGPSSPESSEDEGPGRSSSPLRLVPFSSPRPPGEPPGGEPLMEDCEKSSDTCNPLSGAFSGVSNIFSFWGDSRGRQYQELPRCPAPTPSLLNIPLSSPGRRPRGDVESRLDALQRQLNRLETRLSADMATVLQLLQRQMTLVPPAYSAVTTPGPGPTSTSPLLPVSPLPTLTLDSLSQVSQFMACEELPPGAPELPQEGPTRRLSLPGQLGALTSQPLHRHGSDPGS
Experimental: The assay was performed on hERG channel stably expressed in HEK293 cells. The cells were cultured at 37° C. in a humidified CO2 incubator in the growth medium consisting of DMEM, 10% fetal bovine serum and antibiotics. Prior to the assay, the cells were seeded onto a 12 mm PDL-coated glass coverslip and cultured in a 35 mm Petri dish. After 16 to 40 hr culture, the cover slip was transferred into the chamber of OctaFlow perfusion system (ALA Instrument) and under a constant flow of extracellular solution (140 mM NaCl, 4 mM KCl, 1 mM MgCl2, 2 mM CaCl2, 10 mM HEPES, 10 mM D-glucose, pH 7.35, osmolarity 290). Whole cell patch clamping was performed with a glass micropipette filled with intracellular solution (120 mM KCl, 1.75 mM MgCl2, 5.4 mM CaCl2, 10 mM HEPES, 10 mM EGTA, and 4 mM ATP-K2, PH 7.2, osmolarity 310). Giga-seal was maintained during the test. The voltage control and current measurement were carried out using Axon amplifier 700B, Digidata 1440A and CLAMPEX10 software (Molecular Devices). Whole-cell hERG currents were recorded following the Petroski protocol: the cell was held at −80 mV, and the voltage step jumped from −80 to 30 mV and stay for 2 sec with a 20 ms prepulse at −40 mV. After depolarization, the voltage was decreased to −40 mV and stay for 2 sec, and returned back to −80 mV. Test compound was applied by quartz capillary tubes tip (200 μm inner diameter), and the flow rate was controlled at 2-3 ml/min with OctaFlow perfusion system. Different concentrations of the compound were applied to the cells for 5 min and the hERG current was measured three times before, during and after compound treatment. The data were analyzed using Clampfit 10 software (Molecular Devices) to generate IC50 values.

[1] = system: electroconvulsive threshold (tonic convulsions); experiment: Electroconvulsive Threshold Test (ECT); assay type: in vivo, rats; conditions: rats, 3, 10 and 30 mpk p.o., mesylate salt
Experimental: Test compound E1-8.2 was administered as the free base.
Rats were administered ECS (rectangular current: 0.6 ms pulse width, 1.5 s duration, 200 Hz) via earclip electrodes connected to a constant current shock generator (Ugo Basile: type 7801). Test compounds were administered by oral gavage (p.o.) 1 hour before the test at a dose volume of 5 mL/kg.
Treatment groups of 20 rats were exposed to ECS as follows: The first animal was exposed to 30 mA of ECS. […] (increases of 5 mA) until the first tonic convulsion was observed. Once the first tonic convulsion was observed, the intensity of ECS was decreased by 2 mA for the next animal and then decreased or increased by 2 mA from animal to animal depending on whether the previous animal convulsed or not. If the first animal did convulse (tonic convulsions) within 5 seconds, animal no2 is exposed to 25 mA, etc. . . . (decreases of 5 mA) until the absence of tonic convulsions was observed. At this point, the intensity of ECS was increased by 2 mA for the next animal and then decreased or increased by 2 mA from animal to animal depending on whether the previous animal convulsed or not. The minimum current intensity applied is 5 mA and the maximum 95 mA. The first 5 animals serve to approach threshold current and were not included in the analysis. The results are presented as the mean current intensity administered to the final 15 animals of a group. The test was performed blind. A positive percent change indicates an anticonvulsant effect. A negative percent change indicates a proconvulsant effect. The test substance was evaluated at 4 doses, typically using 0.5% dimethylsulfoxide, 4% hydroxypropyl-b-cyclodextrin water as a vehicle, and administered p.o. 60 minutes before ECS, and compared with a vehicle control group. Diazepam (16 mg/kg p.o.), administered under the same experimental conditions, was used as reference substance. The experiment included 6 groups. Data with the test substance was analyzed by comparing treated groups with vehicle control using one-way ANOVA followed by Dunnett's t tests.

[2] = system: 6 Hz electrically induced seizures; experiment: 6 Hz Seizure Test; assay type: in vivo; conditions: for forelimb seizure score, change vs vehicle control: mice
Experimental: Mice were administered a rectangular current (44 mA, rectangular pulse: 0.2 ms pulse width, 3 s duration, 6 Hz) via corneal electrodes connected to a constant current shock generator (Ugo Basile: type 7801). The results for the number of seizures as reflected by forelimb clonus were recorded during the first minute following current administration. Forelimb clonus was scored as absent (0), mild (1) and strong (2). 15 mice were studied per group. The test was performed partially blind (test substance vs vehicle). […] Quantitative data (scores) with the test substance was analyzed by comparing treated groups with vehicle control using Kruskall-Wallis test followed by Mann-Whitney U tests.

human NR1/NR2B, sequence (Q13224 27-1484, other chains not shown): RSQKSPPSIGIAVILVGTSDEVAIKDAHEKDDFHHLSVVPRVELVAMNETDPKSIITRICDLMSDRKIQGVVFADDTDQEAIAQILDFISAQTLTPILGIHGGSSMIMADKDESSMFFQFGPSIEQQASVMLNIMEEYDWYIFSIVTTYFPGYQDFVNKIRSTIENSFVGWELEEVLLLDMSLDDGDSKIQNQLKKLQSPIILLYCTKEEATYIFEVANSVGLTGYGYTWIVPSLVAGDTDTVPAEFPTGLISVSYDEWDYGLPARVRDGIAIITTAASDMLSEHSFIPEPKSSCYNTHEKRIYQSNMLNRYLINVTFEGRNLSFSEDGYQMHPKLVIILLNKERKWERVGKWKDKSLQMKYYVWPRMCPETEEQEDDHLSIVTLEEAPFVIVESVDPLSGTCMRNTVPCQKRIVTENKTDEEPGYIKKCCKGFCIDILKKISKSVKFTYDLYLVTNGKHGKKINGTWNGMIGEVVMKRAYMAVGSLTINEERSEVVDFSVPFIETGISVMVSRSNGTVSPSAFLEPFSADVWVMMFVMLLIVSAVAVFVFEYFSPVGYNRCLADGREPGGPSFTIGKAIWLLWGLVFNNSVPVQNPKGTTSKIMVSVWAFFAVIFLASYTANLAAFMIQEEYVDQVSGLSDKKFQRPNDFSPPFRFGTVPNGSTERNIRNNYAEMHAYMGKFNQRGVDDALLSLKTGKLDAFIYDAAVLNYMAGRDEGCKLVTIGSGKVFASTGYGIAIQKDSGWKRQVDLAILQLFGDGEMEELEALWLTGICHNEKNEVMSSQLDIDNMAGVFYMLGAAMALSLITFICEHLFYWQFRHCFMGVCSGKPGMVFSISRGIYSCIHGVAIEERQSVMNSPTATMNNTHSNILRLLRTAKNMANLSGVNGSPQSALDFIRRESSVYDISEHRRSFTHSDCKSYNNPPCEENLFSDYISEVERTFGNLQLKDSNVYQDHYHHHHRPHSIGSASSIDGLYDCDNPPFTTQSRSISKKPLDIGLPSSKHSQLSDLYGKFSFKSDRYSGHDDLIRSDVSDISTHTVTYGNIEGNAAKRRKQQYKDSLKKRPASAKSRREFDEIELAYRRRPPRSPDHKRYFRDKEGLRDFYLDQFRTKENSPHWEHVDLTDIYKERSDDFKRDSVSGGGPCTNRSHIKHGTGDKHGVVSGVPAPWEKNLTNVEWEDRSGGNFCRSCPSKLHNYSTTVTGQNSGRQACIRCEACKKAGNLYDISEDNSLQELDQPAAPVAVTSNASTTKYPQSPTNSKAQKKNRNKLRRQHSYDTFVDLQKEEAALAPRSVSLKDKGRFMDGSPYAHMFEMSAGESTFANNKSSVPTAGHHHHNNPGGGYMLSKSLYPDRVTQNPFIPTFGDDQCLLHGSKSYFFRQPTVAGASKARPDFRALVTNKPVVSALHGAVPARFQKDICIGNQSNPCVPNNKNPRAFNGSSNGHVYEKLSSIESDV

SMILES: Cc1ccc(COC(=O)N2CC[C@H](CNc3nccn4cnnc34)C(F)(F)C2)cc1 [Compound E1-1.2, (+)-R-4-methylbenzyl 4-(([1,2,4]triazolo[4,3-a]pyrazin-8-ylamino)methyl)-3,3-difluoropiperidine-1-carboxylate]
- IC50 (human NR1/NR2B; Table 2.1, HEK293 human NR1/NR2B, glutamate 100 μM, glycine 50 μM): 21 nM
- IC50 (human NR1/NR2B; Table 2.2): 21 nM
- IC50 (human NR1/NR2B; Table 2.3): 21 nM
- partial effect on [3H] MK-801 binding (NMDA receptor): 40%
- hERG @ 10 μM (%) (hERG channel; 10 μM): 17%
- IC50 (hERG channel; HEK293, whole cell patch clamp): 40000 nM
- electroconvulsive threshold, pro-/anticonvulsant activity [1]: robust anticonvulsant activity
- number of mice with Straub tail, change vs vehicle control ([2]; 10 mg/kg p.o., NS): −13%
- number of mice with Straub tail, change vs vehicle control ([2]; 30 mg/kg p.o.): −40%
- forelimb seizure score, change vs vehicle control ([2]; 10 mg/kg p.o. 30 minutes before the test): −50%
- forelimb seizure score, change vs vehicle control ([2]; 30 mg/kg p.o. 30 minutes before the test): −70%
